# Data reported in patent publication US8754109B2 (Intermune, Inc., priority 2010, dated 2014).
# How the values were obtained:
# [1] = Phase 1 open-label study: impact of CYP1A2 inhibition (fluvoxamine) and induction (smoking) on pirfenidone pharmacokinetics; type: in vivo, human; conditions: for effect of fluvoxamine co-administration on AUC0-∞: Day 11 vs Day 1, paired t-test; for Ratio of Day 11 AUC0-∞ to Day 1 AUC0-∞, Mean (SD) / Ratio of Day 11 AUC0-∞ to Day 1 AUC0-∞, Median (25th-75th): Day 11 with fluvoxamine; for AUC0-∞ Mean (SD) / AUC0-∞ Median (25th-75th): single 801-mg dose of pirfenidone, healthy subjects n = 51, plasma
# Description: Fifty-four subjects were to be enrolled in two groups, consisting of 27 subjects who were smokers (Group 1) and 27 subjects who were nonsmokers (Group 2). Each group (smokers and nonsmokers) was to include a minimum of nine females and nine males, and attempts were to be made to enroll equal numbers of each sex in each group.
# All pharmacokinetic (PK) analyses were conducted using population PK methods using Monte-Carlo parametric expectation maximization as implemented in the open-source software program S ADAPT 1.5.6 (Bauer et al., AAPS Journal 9 (1):E60-83, 2007). The structural model for the analysis was obtained from a preliminary population PK analysis.
# If other subject characteristics (such as body size or age) were also associated with the ratio of AUC0-∞ on Day 11 to that on Day 1, the significance of these covariates was also tested.
# [2] = biological target: CYP1A2 (Homo sapiens, UniProt P05177); experiment: in vitro experiments on pirfenidone metabolism by CYP isoforms; type: in vitro ADME
# CYP1A2, sequence (P05177 whole entry, canonical isoform): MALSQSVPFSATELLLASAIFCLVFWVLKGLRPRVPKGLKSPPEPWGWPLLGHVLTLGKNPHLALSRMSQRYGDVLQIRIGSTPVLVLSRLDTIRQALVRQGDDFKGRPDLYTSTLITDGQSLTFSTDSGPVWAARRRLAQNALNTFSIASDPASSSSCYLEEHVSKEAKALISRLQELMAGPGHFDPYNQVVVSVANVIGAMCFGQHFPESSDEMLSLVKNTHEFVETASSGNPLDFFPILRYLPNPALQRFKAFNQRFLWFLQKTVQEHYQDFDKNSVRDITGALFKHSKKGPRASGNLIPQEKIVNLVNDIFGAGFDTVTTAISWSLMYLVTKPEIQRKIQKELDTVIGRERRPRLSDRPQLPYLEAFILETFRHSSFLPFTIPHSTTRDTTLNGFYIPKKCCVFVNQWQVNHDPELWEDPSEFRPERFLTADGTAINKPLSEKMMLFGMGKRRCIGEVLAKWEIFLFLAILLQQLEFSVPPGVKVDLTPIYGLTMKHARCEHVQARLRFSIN
# [3] = tested on: multiple other CYPs (1A1, 2A6, 2B6, 2C8, 2C9, 2C18, 2C19, 2D6, 2E1, 2J2, 3A4, 3A5, 4A11, and 4F2); experiment: as above; type: in vitro ADME; conditions: each isoform
# [4] = pirfenidone therapy, oral; cited from earlier work
Structure (SMILES),"ratio of Cmax on Day 11 to the Cmax on Day 1, mean (95% CI) ([1]; Day 11 after fluvoxamine vs Day 1, all subjects)",effect of fluvoxamine co-administration on AUC0-∞ [1],"Ratio of Day 11 AUC0-∞ to Day 1 AUC0-∞, Mean (SD) ([1]; Nonsmokers (N 25))","Ratio of Day 11 AUC0-∞ to Day 1 AUC0-∞, Median (25th-75th) ([1]; Nonsmokers (N 25))","Ratio of Day 11 AUC0-∞ to Day 1 AUC0-∞, Mean (SD) ([1]; Smokers (N 26))","Ratio of Day 11 AUC0-∞ to Day 1 AUC0-∞, Median (25th-75th) ([1]; Smokers (N 26))",AUC0-∞ Mean (SD) ([1]; Study Day 1: Pre-Fluvoxamine),AUC0-∞ Median (25th-75th) ([1]; Study Day 1: Pre-Fluvoxamine),AUC0-∞ Mean (SD) ([1]; Study Day 11: Post-Fluvoxamine),AUC0-∞ Median (25th-75th) ([1]; Study Day 11: Post-Fluvoxamine),share of pirfenidone metabolism by CYP1A2 [2],share of pirfenidone metabolism by each of the other CYPs [3],"incidence of most common adverse reactions (nausea, rash, dyspepsia, dizziness, vomiting, photosensitivity reaction, anorexia) [4]","drop in AUC0-∞ in smokers after accounting for differences in BSA ([1]; Day 1 estimates, AUC0-∞ normalized to body surface area, multiple linear regression, smokers vs nonsmokers)","increase in Cmax after administration of fluvoxamine, on average ([1]; after administration of fluvoxamine)","exposure (AUC0-∞) times higher after fluvoxamine, on average ([1]; after ten days of dosing with fluvoxamine)","decrease in pirfenidone exposure (AUC0-∞) in patients that concomitantly smoke, on average ([1]; compared to patients that do not smoke)","exposure (AUC0-∞) in patients who smoke as % of exposure in patients that didn't smoke, on average ([1]; smokers vs nonsmokers)"
"O=C(O)c1ccc(=O)n(-c2ccccc2)c1 [5-Carboxy-Pirfenidone, 5-carboxy-pirfenidone]",0.369 (0.349-0.390),not a statistically significant effect,1.05 (0.114),1.03 (0.978-1.11),1.12 (0.0951),1.13 (1.04-1.19),29.3 (8.22) mg · hr/L,26.9 (22.0-33.7) mg · hr/L,31.7 (8.96) mg · hr/L,29.4 (25.4-36.5) mg · hr/L,–,–,–,–,–,–,–,–
"Cc1ccc(=O)n(-c2ccccc2)c1 [Pirfenidone, 5-methyl-1-phenyl-2-(1H)-pyridone, reference compound]",–,significant increase,–,–,–,–,–,–,–,–,approx. 48%,< 13%,> 10%,~50%,two-fold,~6 times,about 50%,about 50%
